Measurements as given in patent US9150579B2, “Selective PI3K delta inhibitors” (Rhizen Pharmaceuticals SA, priority 2012, dated 2015).
Entries after “also recorded” stand apart in the source; their conditions may differ.

Columns and labels:
PI3K α = PI3K α (Homo sapiens (Human), UniProt P42336); assay: Assay 1: Fluorescent (HTRF) determination of PI3K enzyme activity, alpha; format: biochemical
Method: (§1) The homogenous time resolved fluorescence (HTRF) assay allows detection of 3,4,5-triphosphate (PIP3) formed as a result of phosphorylation of phosphotidylinositol 4,5-biphosphate (PIP2) by PI3K isoforms such as α, β, γ or δ.
(§2) PI3K isoform activity for α, β, γ or δ was determined using a PI3K human HTRF™ Assay Kit (Millipore, Billerica, Mass.) with modifications. All incubations were carried out at room temperature. […] After the initial incubation, 5 μl/well of 400 μM ATP was added and incubated for an additional 30 minutes. Reaction was terminated by adding 5 μl/well stop solution (Millipore, Billerica, Mass.). Five microliters of detection mix (Millipore, Billerica, Mass.) were then added to each well and was incubated for 6-18 h in the dark.

PI3Kδ = PI3Kδ (Homo sapiens (Human), UniProt O00329); assay: Assay 4a: IgM-induced B cell proliferation assay (PI3Kδ); details: Cell-based
Method: Compound specificity towards PI3Kδ was determined in an IgM-induced B cell proliferation assay. B-cells isolated from blood of healthy subjects were seeded in a 96-well tissue culture plate and incubated with desired concentrations of compound for 30 min. Cells were stimulated with 5 μg/ml purified goat anti-human IgM. Growth was assessed using the 3-[4,5-dimethylthiazol-2-yl]-2,5-diphenyltetrazolium bromide (MTT) dye reduction test. For selectivity against PI3K α, β, or γ isoforms, NIH-3T3 or RAW macrophages were seeded in a 6-well tissue culture plate and incubated overnight. Complete medium was replaced with serum-free media the following day and compound at the desired concentrations were added. After 15 minutes, 20 ng/ml PDGF, 5 μM LPA, or 50 ng/ml c5a was added and incubated for an additional 10 minutes. Cells were lysed and AKT phosphorylation was determined by Western Blotting. Intensity of the bands was determined using ImageJ 1.42q (NIH, USA) and normalized to Actin (loading control).

[1] = Metabolic stability in rat liver microsomes; format: in vitro ADME; details: 1 μM test item, 60 minutes, NADPH
Method: (§3) Metabolic stability studies were conducted using mouse, rat, and human liver microsomes. The protocol for the studies with mouse, rat, and human liver microsomes (all from BD Gentest, USA) is provided below. In brief, 0.4 mg protein was preincubated with 2 mM NADPH (cofactor) in phosphate buffer (pH˜7.4) for 15 min at 37° C. and then added with 1 μM test item and incubated further for 60 minutes in triplicate. The reaction mixture was terminated with methanol containing an internal standard and centrifuged further to analyze the test item remaining in the supernatant by LC-MS/MS. The percent parent compound remaining was calculated in comparison with similar samples terminated at 0 minutes.

PI3K γ = PI3K γ (Homo sapiens (Human), UniProt P48736); assay: Assay 1: Fluorescent (HTRF) determination of PI3K enzyme activity, gamma; format: biochemical
Method: as §1, §2

[2] = system: AML patient bone marrow leukemic cells; assay: Assay 6-I: Flow cytometry analysis of apoptotic induction in AML patient bone marrow leukemic cells; format: cell-based, human
Method: 6-I: Flow cytometry analysis of apoptotic induction in AML patient bone marrow leukemic cells upon compound treatment using Annexin V and 7-AAD staining: Mononuclear cells were extracted by the Ficoll method and seeded in plates. The cells were treated by different compounds for 48 hrs before they were analyzed by flow cytometry. After washing with PBS, 1×10^5 cells were stained by Annexin V-APC and 7-AAD. Annexin V positive staining measures total apoptotic cells, including early and late apoptotic cells. For Annexin V positive cells, 7-AAD negative signal reflects early apoptotic cells.

[3] = Metabolic stability in human liver microsomes; format: in vitro ADME
Method: as §3

[4] = system: AML patient bone marrow leukemic cells; assay: Assay 6-III: Cell proliferation analysis of AML patient bone marrow sample (MTS); format: cell-based, human
Method: 6-III: Cell proliferation analysis of AML patient bone marrow sample using MTS assay: Mononuclear cells were extracted by the Ficoll method and seeded in plates. The cells were treated by different compounds for 48 hrs and 72 hrs before they were analyzed by MTS assay following product instruction. Briefly, 20 μL of the MTS solution was added into each well containing the 100 μL cell suspension, followed by incubation for 4 hours at 37° C., in 95% humidity with presence of 5% CO2. The absorbance of 490 nm (A490) was read using SpectraMAX Plus microplate spectrophotometer.

Sequence of PI3K γ (P48736 whole entry): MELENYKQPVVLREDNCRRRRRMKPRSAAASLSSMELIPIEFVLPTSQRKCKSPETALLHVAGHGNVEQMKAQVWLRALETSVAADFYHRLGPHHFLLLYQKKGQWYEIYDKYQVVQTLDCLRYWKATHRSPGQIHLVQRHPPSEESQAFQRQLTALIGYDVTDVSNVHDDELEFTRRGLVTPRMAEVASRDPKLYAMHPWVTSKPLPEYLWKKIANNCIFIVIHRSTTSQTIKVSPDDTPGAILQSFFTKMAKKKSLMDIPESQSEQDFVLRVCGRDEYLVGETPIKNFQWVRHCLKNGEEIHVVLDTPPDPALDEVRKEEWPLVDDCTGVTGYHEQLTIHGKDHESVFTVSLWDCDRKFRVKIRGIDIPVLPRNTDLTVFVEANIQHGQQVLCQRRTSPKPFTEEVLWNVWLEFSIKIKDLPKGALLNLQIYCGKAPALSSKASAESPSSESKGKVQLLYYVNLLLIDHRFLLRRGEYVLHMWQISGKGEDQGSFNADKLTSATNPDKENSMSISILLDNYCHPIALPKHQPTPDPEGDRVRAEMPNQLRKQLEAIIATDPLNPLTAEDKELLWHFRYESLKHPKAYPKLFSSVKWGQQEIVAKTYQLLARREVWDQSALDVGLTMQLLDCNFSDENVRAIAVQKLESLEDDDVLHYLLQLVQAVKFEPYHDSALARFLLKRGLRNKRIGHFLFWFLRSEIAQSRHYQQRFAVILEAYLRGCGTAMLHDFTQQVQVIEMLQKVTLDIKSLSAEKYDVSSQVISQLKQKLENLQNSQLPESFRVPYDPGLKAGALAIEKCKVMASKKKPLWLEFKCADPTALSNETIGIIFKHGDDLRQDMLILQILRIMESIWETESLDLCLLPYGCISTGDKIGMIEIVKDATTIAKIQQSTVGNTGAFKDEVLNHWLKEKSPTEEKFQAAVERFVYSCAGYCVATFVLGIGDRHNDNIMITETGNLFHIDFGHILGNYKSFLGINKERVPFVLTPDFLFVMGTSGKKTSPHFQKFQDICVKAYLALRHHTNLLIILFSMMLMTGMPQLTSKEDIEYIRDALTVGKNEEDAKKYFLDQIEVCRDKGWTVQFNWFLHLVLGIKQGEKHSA
Sequence of PI3K α (P42336 whole entry, canonical isoform): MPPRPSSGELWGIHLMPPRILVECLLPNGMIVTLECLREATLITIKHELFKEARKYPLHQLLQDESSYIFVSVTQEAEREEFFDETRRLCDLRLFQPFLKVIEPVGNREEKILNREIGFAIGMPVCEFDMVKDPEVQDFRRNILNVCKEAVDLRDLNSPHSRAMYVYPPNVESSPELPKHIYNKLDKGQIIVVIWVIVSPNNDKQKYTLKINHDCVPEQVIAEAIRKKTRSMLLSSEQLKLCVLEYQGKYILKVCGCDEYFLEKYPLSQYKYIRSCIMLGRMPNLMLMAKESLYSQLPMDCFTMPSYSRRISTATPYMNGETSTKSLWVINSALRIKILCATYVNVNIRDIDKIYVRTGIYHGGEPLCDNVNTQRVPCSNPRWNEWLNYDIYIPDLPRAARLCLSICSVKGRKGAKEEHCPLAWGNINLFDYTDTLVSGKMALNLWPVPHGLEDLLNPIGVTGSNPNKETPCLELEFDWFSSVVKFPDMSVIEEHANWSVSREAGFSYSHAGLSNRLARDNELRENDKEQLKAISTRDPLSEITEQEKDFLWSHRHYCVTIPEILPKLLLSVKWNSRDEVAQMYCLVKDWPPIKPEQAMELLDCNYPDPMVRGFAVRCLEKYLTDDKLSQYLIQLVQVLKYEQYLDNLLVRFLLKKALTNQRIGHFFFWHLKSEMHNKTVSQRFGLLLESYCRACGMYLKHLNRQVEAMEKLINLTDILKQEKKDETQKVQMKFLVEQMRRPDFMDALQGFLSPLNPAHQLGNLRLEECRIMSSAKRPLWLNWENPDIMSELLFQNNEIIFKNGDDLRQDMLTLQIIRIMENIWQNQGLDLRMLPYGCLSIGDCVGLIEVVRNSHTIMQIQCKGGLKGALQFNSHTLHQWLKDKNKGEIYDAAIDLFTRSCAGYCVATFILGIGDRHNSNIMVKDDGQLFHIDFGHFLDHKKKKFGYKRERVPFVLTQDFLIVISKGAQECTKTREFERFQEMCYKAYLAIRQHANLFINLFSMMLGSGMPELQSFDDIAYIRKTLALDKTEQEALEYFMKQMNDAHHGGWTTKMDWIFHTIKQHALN
Sequence of PI3K α (P27986 whole entry partner, canonical isoform): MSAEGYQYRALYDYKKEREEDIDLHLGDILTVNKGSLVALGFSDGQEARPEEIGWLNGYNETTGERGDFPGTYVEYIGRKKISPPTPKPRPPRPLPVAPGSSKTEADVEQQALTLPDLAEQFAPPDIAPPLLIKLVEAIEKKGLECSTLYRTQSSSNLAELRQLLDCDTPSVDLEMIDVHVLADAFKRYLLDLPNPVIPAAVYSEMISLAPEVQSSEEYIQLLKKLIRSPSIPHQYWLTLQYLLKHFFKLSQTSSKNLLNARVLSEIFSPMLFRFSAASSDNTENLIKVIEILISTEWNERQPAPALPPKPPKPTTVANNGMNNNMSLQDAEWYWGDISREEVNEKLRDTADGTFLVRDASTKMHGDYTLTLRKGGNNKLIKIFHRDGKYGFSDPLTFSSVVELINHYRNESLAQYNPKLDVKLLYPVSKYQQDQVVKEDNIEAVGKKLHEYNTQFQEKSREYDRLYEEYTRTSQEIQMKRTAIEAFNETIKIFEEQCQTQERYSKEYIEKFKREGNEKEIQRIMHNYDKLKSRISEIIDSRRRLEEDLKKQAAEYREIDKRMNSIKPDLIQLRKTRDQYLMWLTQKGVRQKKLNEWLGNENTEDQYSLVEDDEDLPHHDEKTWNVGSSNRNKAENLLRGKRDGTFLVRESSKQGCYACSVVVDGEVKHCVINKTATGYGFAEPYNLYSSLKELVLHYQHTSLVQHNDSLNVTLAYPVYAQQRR
Sequence of PI3Kδ (O00329 whole entry, canonical isoform): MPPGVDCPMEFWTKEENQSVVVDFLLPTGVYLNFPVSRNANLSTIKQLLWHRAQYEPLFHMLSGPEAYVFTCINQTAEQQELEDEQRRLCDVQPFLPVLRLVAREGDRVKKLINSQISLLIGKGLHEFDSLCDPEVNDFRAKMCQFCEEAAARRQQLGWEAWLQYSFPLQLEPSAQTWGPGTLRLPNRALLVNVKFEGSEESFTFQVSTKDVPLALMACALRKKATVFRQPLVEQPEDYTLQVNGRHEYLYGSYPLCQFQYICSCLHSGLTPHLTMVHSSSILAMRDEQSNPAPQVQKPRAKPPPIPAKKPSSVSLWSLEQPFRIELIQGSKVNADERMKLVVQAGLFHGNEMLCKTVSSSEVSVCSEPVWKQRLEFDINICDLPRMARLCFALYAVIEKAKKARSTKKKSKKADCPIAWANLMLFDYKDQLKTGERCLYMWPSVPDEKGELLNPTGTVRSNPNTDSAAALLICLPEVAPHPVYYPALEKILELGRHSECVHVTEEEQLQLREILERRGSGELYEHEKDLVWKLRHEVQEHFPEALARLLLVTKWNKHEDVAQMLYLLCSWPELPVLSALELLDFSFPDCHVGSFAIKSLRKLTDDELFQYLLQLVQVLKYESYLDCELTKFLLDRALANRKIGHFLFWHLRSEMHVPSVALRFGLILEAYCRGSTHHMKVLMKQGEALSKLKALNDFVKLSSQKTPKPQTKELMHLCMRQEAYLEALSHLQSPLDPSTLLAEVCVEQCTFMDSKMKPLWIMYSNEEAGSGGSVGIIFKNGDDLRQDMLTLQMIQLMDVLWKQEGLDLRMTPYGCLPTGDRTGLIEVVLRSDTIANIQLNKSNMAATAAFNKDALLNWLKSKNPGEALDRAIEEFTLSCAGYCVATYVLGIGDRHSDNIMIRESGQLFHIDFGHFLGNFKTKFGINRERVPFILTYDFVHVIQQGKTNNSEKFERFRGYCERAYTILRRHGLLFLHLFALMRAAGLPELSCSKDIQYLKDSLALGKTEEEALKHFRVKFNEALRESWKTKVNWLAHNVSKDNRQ
Sequence of PI3Kδ (P27986 whole entry partner, canonical isoform): as the sequence (P27986 whole entry partner, canonical isoform) above

With `CC(C)Oc1ccc(-c2nn([C@@H](C)c3oc4ccccc4c(=O)c3-c3cccc(F)c3)c3ncnc(N)c23)cc1F` [Compound A1, (S)-2-(1-(4-amino-3-(3-fluoro-4-isopropoxyphenyl)-1H-pyrazolo[3,4-d]pyrimidin-1-yl)ethyl)-3-(3-fluorophenyl)-4H-chromen-4-one] the inhibition at 1 µM (PI3K α) was 8.91%, the “Fold-Selectivity PI3Kα” value (PI3K α; Enzyme, versus PI3Kδ) was over 1000 fold and the EC50 (PI3Kδ) was under 0.05 µM. The “Metabolic stability in liver microsomes, Rat (percent parent compound remaining)” value [1] was 35.8%, the inhibition at 1 µM (PI3K γ) was 80.6% and the “Fold-Selectivity PI3Kγ” value (PI3K γ; Enzyme, versus PI3Kδ) was over 9 fold. For the same molecule, the “number of apoptotic cells” value [2] was “concomitant increase in the number of apoptotic cells”, the “fold increase in apoptosis” value ([2]; 3 μM, 48 hrs) was ~1.5 fold increase in appotosis @ 3 μM and and the “Metabolic stability in liver microsomes, Human (percent parent compound remaining)” value ([3]; 1 μM test item, 60 minutes, NADPH) was 54.5%. The “fold greater metabolic stability in human liver microsomes than its enantiomer” value ([3]; A1 vs A2, B1 vs B2) was about 5 fold and the “cell viability / proliferation” value [4] was “dose dependent reduction in proliferation; also recorded: Dose dependent reduction in cell viability”.
